Experiments:
topoisomerase II = experiment: KDNA decatenation assay; assay type: biochemical; conditions: 50 μM drug, 10 min at 37°C, gel
[1] = system: Topo II-DNA cleavage complexes; experiment: Cellular Topo II inhibition; assay type: cell-based, human; conditions: 90 nM DAU, 130 nM 7, […] 12b; for stabilized Topo II-DNA cleavage complexes, 30 min treatment: DU-145, 30 min; for stabilized Topo II-DNA cleavage complexes, 72 hour treatment: DU-145, 72 h
acetyl tubulin = experiment: Western blot of tubulin acetylation in DU-145 cells; conditions: DU-145, 4 h; DAU 90, 500 nM; 7 130, 500 nM; 12b 1.31, 10 μM
HDAC 8 = biological target: T1, HDAC 8 (Homo sapiens, UniProt Q9BY41); experiment: Recombinant HDAC 8 inhibition; conditions: HDAC 8 vs HDAC 1
T1 sequence (Q9BY41 1-377): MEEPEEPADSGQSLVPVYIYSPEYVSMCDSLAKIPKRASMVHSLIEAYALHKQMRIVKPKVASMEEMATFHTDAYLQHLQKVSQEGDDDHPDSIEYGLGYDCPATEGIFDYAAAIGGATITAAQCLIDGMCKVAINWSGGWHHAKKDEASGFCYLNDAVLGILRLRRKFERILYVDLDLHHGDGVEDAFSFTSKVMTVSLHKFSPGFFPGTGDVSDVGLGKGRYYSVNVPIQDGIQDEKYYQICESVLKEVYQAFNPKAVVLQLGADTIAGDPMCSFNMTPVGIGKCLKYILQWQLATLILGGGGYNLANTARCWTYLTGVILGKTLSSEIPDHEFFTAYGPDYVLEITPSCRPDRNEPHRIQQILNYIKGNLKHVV

HDAC 6 = biological target: T2, HDAC 6 (Homo sapiens, UniProt Q9UBN7); experiment: Recombinant HDAC 6 inhibition; assay type: biochemical
T2 sequence (Q9UBN7 1-1215): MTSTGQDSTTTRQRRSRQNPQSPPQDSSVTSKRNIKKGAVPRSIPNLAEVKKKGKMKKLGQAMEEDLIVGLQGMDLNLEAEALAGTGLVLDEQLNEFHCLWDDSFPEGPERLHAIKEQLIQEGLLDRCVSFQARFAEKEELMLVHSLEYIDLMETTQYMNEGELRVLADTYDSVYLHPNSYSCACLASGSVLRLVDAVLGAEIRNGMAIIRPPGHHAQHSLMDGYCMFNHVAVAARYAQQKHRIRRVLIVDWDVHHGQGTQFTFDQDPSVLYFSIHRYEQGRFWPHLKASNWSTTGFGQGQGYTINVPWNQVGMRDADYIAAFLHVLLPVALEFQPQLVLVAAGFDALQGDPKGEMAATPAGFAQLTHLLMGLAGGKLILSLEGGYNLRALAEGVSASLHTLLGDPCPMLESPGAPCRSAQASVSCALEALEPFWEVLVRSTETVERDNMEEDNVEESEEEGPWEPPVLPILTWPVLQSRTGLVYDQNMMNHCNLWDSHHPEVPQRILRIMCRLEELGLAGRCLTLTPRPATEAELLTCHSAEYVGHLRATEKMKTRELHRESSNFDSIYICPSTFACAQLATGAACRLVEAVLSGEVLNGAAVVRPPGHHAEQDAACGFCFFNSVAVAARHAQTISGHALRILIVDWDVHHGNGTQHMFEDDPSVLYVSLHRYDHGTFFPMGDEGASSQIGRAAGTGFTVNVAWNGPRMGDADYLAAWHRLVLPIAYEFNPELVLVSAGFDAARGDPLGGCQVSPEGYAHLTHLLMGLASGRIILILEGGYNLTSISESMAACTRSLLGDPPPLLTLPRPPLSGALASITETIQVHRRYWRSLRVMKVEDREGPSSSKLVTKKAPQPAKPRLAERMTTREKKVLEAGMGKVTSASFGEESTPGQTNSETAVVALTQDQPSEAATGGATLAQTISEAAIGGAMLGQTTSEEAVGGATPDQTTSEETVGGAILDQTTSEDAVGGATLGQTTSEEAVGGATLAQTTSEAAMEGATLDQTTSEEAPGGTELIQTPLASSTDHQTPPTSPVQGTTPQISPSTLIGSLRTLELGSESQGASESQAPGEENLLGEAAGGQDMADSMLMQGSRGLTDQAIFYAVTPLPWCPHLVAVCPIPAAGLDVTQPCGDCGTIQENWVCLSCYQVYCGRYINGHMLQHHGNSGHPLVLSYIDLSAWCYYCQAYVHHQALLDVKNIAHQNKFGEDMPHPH

[2] = system: acetylated histones H4 and H3; experiment: Western blot of histone H4 and H3 acetylation in DU-145 cells; assay type: cell-based, human; conditions: DU-145, 24 h; SAHA 2.5, 5 μM; DAU 0.1, 0.5 μM; 7 0.5, 1 μM; 12b 2.5, 5 μM
HDAC 1 = HDAC 1 (Homo sapiens, UniProt Q13547); experiment: Recombinant HDAC 1 inhibition; conditions: 12c vs 12a
[3] = system: HeLa cell nuclear extract HDACs (HDAC 1/2); experiment: In vitro HDAC inhibition, HeLa nuclear extract; assay type: biochemical; conditions: relative to 12a

Sequence of HDAC 1 (Q13547 whole entry): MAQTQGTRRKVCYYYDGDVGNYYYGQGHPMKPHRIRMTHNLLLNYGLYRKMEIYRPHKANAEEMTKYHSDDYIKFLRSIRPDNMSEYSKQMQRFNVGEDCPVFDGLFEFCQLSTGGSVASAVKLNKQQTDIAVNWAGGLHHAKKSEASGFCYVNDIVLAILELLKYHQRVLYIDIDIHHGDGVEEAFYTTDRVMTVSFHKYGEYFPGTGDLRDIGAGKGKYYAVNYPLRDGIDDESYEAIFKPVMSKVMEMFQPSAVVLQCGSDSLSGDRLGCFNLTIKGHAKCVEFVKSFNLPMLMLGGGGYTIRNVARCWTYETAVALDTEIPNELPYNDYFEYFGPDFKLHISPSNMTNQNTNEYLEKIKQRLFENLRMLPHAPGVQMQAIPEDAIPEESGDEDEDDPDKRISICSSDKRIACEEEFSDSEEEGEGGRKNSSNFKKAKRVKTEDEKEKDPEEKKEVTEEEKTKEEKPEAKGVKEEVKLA

Compound | Topo II inhibition (KDNA decatenation) (topoisomerase II) | stabilized Topo II-DNA cleavage complexes, 30 min treatment [1] | stabilized Topo II-DNA cleavage complexes, 72 hour treatment [1] | tubulin acetylation (immunoblot) (acetyl tubulin) | anti-HDAC 8 activity, fold less than anti-HDAC 1 activity (HDAC 8) | IC50 (HDAC 6) [nM] | histone H4 acetylation (immunoblot) [2] | fold activity difference between 12a and 12c, HDAC inhibitory activity (HDAC 1) | fold more potent than 12a, HeLa nuclear extract HDACs [3]
COc1cccc2c1C(=O)c1c(O)c3c(c(O)c1C2=O)C[C@@](O)(C(C)=O)C[C@@H]3O[C@H]1C[C@H](NCc2ccc(NC(=O)CCCCCCC(=O)NO)cc2)[C@H](O)[C@H](C)O1 [Compound 7, Daunorubicin-N-benzyl-4-amino-8-oxooctahydroxamic Acid] | comparable levels to that of DAU | indistinguishable from that of the control cells | measured increase in Topo II inhibition | moderate levels of acetylation | about 4 fold |  |  |  | 
COc1cccc2c1C(=O)c1c(O)c3c(c(O)c1C2=O)C[C@@](O)(C(C)=O)C[C@@H]3O[C@H]1C[C@H](NCc2ccc(-c3cn(CCCCC(=O)NO)nn3)cc2)[C@H](O)[C@H](C)O1 [Compound 12a, Daunorubicin-N-benzyl-4-triazolylpentahydroxamic Acid] | lower Topo II inhibition activity |  |  |  |  | 600 |  |  | 
COc1cccc2c1C(=O)c1c(O)c3c(c(O)c1C2=O)C[C@@](O)(C(C)=O)C[C@@H]3O[C@H]1C[C@H](NCc2ccc(-c3cn(CCCCCC(=O)NO)nn3)cc2)[C@H](O)[C@H](C)O1 [Compound 12b, Daunorubicin-N-benzyl-4-triazolylhexahydroxamic Acid] | comparable levels to that of DAU | significantly higher amount | drastic drop | robust acetylation |  |  | strong H4 acetylation |  | 
COc1cccc2c1C(=O)c1c(O)c3c(c(O)c1C2=O)C[C@@](O)(C(C)=O)C[C@@H]3O[C@H]1C[C@H](NCc2ccc(-c3cn(CCCCCCC(=O)NO)nn3)cc2)[C@H](O)[C@H](C)O1 [Compound 12c, Daunorubicin-N-benzyl-4-triazolylheptahydroxamic Acid] | near total inhibition |  |  |  |  |  |  | ~ 600 fold | 
COc1cccc2c1C(=O)c1c(O)c3c(c(O)c1C2=O)C[C@@](O)(C(C)=O)C[C@@H]3O[C@H]1C[C@H](NCc2ccc(-c3cn(CCCCCCCC(=O)NO)nn3)cc2)[C@H](O)[C@H](C)O1 [Compound 12d, Daunorubicin-N-benzyl-4-triazolyloctahydroxamic Acid] | lower Topo II inhibition activity |  |  |  |  |  |  |  | about 20 fold
COc1cccc2c1C(=O)c1c(O)c3c(c(O)c1C2=O)C[C@@](O)(C(C)=O)C[C@@H]3O[C@H]1C[C@H](N)[C@H](O)[C@H](C)O1 [DAU, daunomycin, reference compound] | severe impairment of DNA decatenation | high levels | significant inhibition of Topo II activity | lowest levels of acetylation |  |  |  |  | 
